Data set [1] in a line: Dynamic vapor sorption (DVS) test. The format is physicochemical. The note with it: 25° C.; for Hygroscopicity (result in words): 5 to 95% RH; for Reversibility of water adsorption when the humidity was decreased: decrease from 95% to 5% RH. The protocol: Vapor sorption tests were performed using the type II crystal of Compound (1) in free form, the type III crystal of Compound (1) in free form, the type VII crystal of Compound (1) in free form, and the type VIII crystal of Compound (1) in free form obtained in the examples, reference example, and comparative example.
Vapor sorption tests were conducted under the following conditions.
Approximately 10 mg of the sample was filled into a specialized quartz holder to continuously measure and record the weight of the sample at each humidity was under the following conditions. The instrument, including data processing, was handled in accordance with the method and procedure indicated for each instrument. • Instrument: VTI-SA+(manufactured by TA Instruments) • Drying temperature: 60° C. • Heating rate: 1° C./min • Equilibration of drying: Confirmation of no more than 0.01 wt % decrease in 5 minutes within a period not exceeding 300 minutes • Measurement temperature: 25° C. • Equilibration of humidification: Confirmation of no more than 0.01 wt % increase in 5 minutes within a period not exceeding 120 minutes • Relative humidity program: Increase from 5 to 95% RH in increments of 5% RH, and decrease from 95% to 5% RH in increments of 5% RH. • Changes in the weight over the range of the measurement conditions obtained in these tests are shown in FIGS. 9 through 12.
Vapor sorption tests were performed using the type III crystal of Compound (1) with succinic acid, the type I crystal of Compound (1) with citric acid, the type IV crystal of Compound (1) with citric acid, the type I crystal of Compound (1) with sorbic acid, and the type I crystal of Compound (1) with phosphoric acid obtained in the examples, reference example, and comparative examples.
Vapor sorption tests were conducted under the same conditions as in Test Example 2.

A short description of data set [2]: Solid stability test (4 weeks of storage at 80° C., closed system; HPLC). The format is physicochemical. As to conditions: for Chemical purity after 4 weeks of storage at 80° C. / Solid stability (result in words): 80° C. (closed system), 4 weeks; for Chemical purity after 4 weeks of storage at 80° C.: glass bottle; for Chemical purity after 4 weeks of storage at 80° C. / Chemical purity before storage: HPLC; for Solid stability (result in words): related substances by HPLC; for Chemical purity before storage: UV 220; for Change (chemical purity): after 4 weeks at 80° C. versus before storage. The protocol: The solid stability of the type II crystal of Compound (1) in free form, the type III crystal of Compound (1) in free form, the type VII crystal of Compound (1) in free form, and the type VIII crystal of Compound (1) in free form obtained in the examples, reference example, and comparative example were evaluated after 4 weeks of storage by the following procedure. • Storage conditions: 80° C. (closed system) (HIFLEX (high-temperature storage chamber manufactured by ETAC)) • Storage period: 4 weeks • Storage volume: Approximately 30 mg • Storage container: Glass bottle
Changes in the mass of the related substances (the amounts of detected substances other than Compound (1)) were analyzed by HPLC according to the following method. Approximately 8 mg of each sample was weighed and dissolved in I mL of a chloroform-methanol mixture (1:1 v/v). Fifty μL of this solution was measured and diluted with 950 μL of an acetonitrile-water mixture (7:3), and 5 μL of the resulting solution was accurately measured and used as the sample for the analysis.
The mass of the related substances in the sample solution was determined by HPLC analysis. The instrument, including data processing, was handled in accordance with the method and procedure indicated for each instrument. • Column: InertSustainSwift C18 (2.1×50 mm, 1.9 μm) manufactured by GL Sciences • UV detection: […] • Column temperature: 40° C. • Flow rate: 0.3 mL/min • Sample cooler: 10° C. • Sample concentration: 0.1 mg/mL • Mobile phase A: 10 mmol/L phosphate buffer (pH 6.8)/acetonitrile (95:5) mixture • Mobile phase B: Acetonitrile • The gradients are shown in Table 4.
The solid stability of the type III crystal of Compound (1) with succinic acid, the type I crystal of Compound (1) with citric acid, the type IV crystal of Compound (1) with citric acid, the type I crystal of Compound (1) with sorbic acid, and the type I crystal of Compound (1) with phosphoric acid obtained in the examples, reference example, and comparative examples were evaluated after 4 weeks of storage. The evaluation method, storage, and measurement conditions were as described in Test Example 1.

Setting [3] is: listed as Type II crystal in free form.
Where [4] appears, read: listed as type III crystal of Compound (1) in free form.

The text below walks through data of US20250276973A1, “CRYSTAL OF 7H-PYRROLO[2,3-D]PYRIMIDINE-4-AMINE DERIVATIVE” (TAIHO PHARMACEUTICAL CO., LTD., priority 2022, published 2025).

Regarding `C#Cc1c(-c2cnc3ccccc3c2)c2c(N)ncnc2n1C12CCC(NC(=O)c3cnc(C)cn3)(CC1)C2` [Type VII crystal in free form, N-(4-(4-amino-6-ethynyl-5-(quinolin-3-yl)-7H-pyrrolo[2,3-d]pyrimidin-7-yl)bicyclo[2.2.1]heptan-1-yl)-5-methylpyrazine-2-carboxamide], in data set [1], the “Hygroscopicity (result in words)” value was “highly hygroscopic” and the “Reversibility of water adsorption when the humidity was decreased” value is reported as “irreversible”. Further, in data set [2], the “Chemical purity after 4 weeks of storage at 80° C.” value (shortened to “Chemical purity after 4 weeks”) was found to be 99.63% and the “Chemical purity before storage” value is 99.63%. The “Solid stability (result in words)” value in data set [2] (listed as type VII crystal of Compound (1) in free form) is on record as “extremely stable crystals with almost no increase in the related substances”.

Turning to `C#Cc1c(-c2cnc3ccccc3c2)c2c(N)ncnc2n1C12CCC(NC(=O)c3cnc(C)cn3)(CC1)C2` [Type IV crystal of Compound (1) with citric acid] [N-(4-(4-amino-6-ethynyl-5-(quinolin-3-yl)-7H-pyrrolo[2,3-d]pyrimidin-7-yl)bicyclo[2.2.1]heptan-1-yl)-5-methylpyrazine-2-carboxamide], the “Hygroscopicity (result in words)” value in data set [1] is given as “highly hygroscopic”. For the same molecule, in data set [2], the “Chemical purity after 4 weeks” value turned out to be 93.49%, the “Solid stability (result in words)” value is listed as “unstable crystals with decreases in purity”, the “Change (chemical purity)” value was −6.42% and the “Chemical purity before storage” value worked out at 99.91%.

Turning to `C#Cc1c(-c2cnc3ccccc3c2)c2c(N)ncnc2n1C12CCC(NC(=O)c3cnc(C)cn3)(CC1)C2` [Type I crystal of Compound (1) with citric acid] [N-(4-(4-amino-6-ethynyl-5-(quinolin-3-yl)-7H-pyrrolo[2,3-d]pyrimidin-7-yl)bicyclo[2.2.1]heptan-1-yl)-5-methylpyrazine-2-carboxamide], in data set [1], the “Hygroscopicity (result in words)” value is listed as “highly hygroscopic”. In data set [2], the “Chemical purity after 4 weeks” value is listed as 99.03%, the “Solid stability (result in words)” value is given as “unstable crystals with decreases in purity”, the “Change (chemical purity)” value is recorded as −0.72% and the “Chemical purity before storage” value is recorded as 99.75%.

As for `C#Cc1c(-c2cnc3ccccc3c2)c2c(N)ncnc2n1C12CCC(NC(=O)c3cnc(C)cn3)(CC1)C2` [Type I crystal of Compound (1) with phosphoric acid] [N-(4-(4-amino-6-ethynyl-5-(quinolin-3-yl)-7H-pyrrolo[2,3-d]pyrimidin-7-yl)bicyclo[2.2.1]heptan-1-yl)-5-methylpyrazine-2-carboxamide], in data set [1], the “Hygroscopicity (result in words)” value is recorded as “highly hygroscopic”. Moreover, in data set [2], the “Chemical purity after 4 weeks” value is 99.50%, the “Solid stability (result in words)” value is recorded as “unstable crystals with decreases in purity”, the “Change (chemical purity)” value is −0.40% and the “Chemical purity before storage” value came out at 99.90%.

For `C#Cc1c(-c2cnc3ccccc3c2)c2c(N)ncnc2n1C12CCC(NC(=O)c3cnc(C)cn3)(CC1)C2` [Type II crystal of Compound (1) in free form] [N-(4-(4-amino-6-ethynyl-5-(quinolin-3-yl)-7H-pyrrolo[2,3-d]pyrimidin-7-yl)bicyclo[2.2.1]heptan-1-yl)-5-methylpyrazine-2-carboxamide], the “Hygroscopicity (result in words)” value in data set [1] is “hardly hygroscopic”. Moreover, the “Weight increase under 95% relative humidity” value in data set [1] (95% RH) was found to be 0.16%. Moreover, in data set [2] (setting [3]), the “Chemical purity after 4 weeks” value is 99.78%, the “Change (chemical purity)” value is reported as −0.02% and the “Chemical purity before storage” value amounted to 99.80%. In addition, the “Solid stability (result in words)” value in data set [2] is recorded as “extremely stable crystals with almost no increase in the related substances”.

As for `C#Cc1c(-c2cnc3ccccc3c2)c2c(N)ncnc2n1C12CCC(NC(=O)c3cnc(C)cn3)(CC1)C2` [Type VIII crystal in free form, N-(4-(4-amino-6-ethynyl-5-(quinolin-3-yl)-7H-pyrrolo[2,3-d]pyrimidin-7-yl)bicyclo[2.2.1]heptan-1-yl)-5-methylpyrazine-2-carboxamide], in data set [1], the “Hygroscopicity (result in words)” value is reported as “highly hygroscopic” and the “Reversibility of water adsorption when the humidity was decreased” value is reported as “irreversible”. Besides, in data set [2], the “Chemical purity after 4 weeks” value turned out to be 99.43%, the “Change (chemical purity)” value was −0.19% and the “Chemical purity before storage” value was found to be 99.62%.

Consider `C#Cc1c(-c2cnc3ccccc3c2)c2c(N)ncnc2n1C12CCC(NC(=O)c3cnc(C)cn3)(CC1)C2` [Type III crystal in free form, N-(4-(4-amino-6-ethynyl-5-(quinolin-3-yl)-7H-pyrrolo[2,3-d]pyrimidin-7-yl)bicyclo[2.2.1]heptan-1-yl)-5-methylpyrazine-2-carboxamide], for which the “Hygroscopicity (result in words)” value in data set [1] is listed as “low hygroscopicity as long as RH is less than 65%”. Also, in data set [1] (setting [4]), the “Hygroscopicity (result in words)” value was “hygroscopicity that sharply increased at above 65% RH” and the “Reversibility of water adsorption when the humidity was decreased” value is recorded as “reversible”. In data set [2], the “Chemical purity after 4 weeks” value was determined as 99.60%, the “Change (chemical purity)” value is reported as “+0.02%” and the “Chemical purity before storage” value worked out at 99.58%. Also, in data set [2] (setting [4]), the “Solid stability (result in words)” value is recorded as “extremely stable crystals with almost no increase in the related substances”.
